{"source": "patent US7575882B2", "about": "“Compositions and methods for identifying modulators of TRPV2” (Janssen Pharmaceutica N. V., priority 2005, dated 2009)", "key": {"[1]": {"system": "untransfected HEK293 cells", "assay": "FLIPR calcium assay in untransfected HEK293 cells (control)", "format": "cell-based", "settings": "100 μM"}, "[2]": {"molecular_target": "T1, co-expressed TRPV2 chimeras RRH and HRR (Rattus norvegicus, UniProt Q9WUD2)", "T1 construct": "expressed in transfected cells; host or cells: HEK293, transient co-expression, pCI-neo", "T1 sequence (Q9WUD2 with tags, fused parts or gaps H651S/D654T/N655D/DEL680-680/H683Q/E685A/R687V/L688M/K690T/R694K/G695P/T698S/A714S/K717Q/S723C)": "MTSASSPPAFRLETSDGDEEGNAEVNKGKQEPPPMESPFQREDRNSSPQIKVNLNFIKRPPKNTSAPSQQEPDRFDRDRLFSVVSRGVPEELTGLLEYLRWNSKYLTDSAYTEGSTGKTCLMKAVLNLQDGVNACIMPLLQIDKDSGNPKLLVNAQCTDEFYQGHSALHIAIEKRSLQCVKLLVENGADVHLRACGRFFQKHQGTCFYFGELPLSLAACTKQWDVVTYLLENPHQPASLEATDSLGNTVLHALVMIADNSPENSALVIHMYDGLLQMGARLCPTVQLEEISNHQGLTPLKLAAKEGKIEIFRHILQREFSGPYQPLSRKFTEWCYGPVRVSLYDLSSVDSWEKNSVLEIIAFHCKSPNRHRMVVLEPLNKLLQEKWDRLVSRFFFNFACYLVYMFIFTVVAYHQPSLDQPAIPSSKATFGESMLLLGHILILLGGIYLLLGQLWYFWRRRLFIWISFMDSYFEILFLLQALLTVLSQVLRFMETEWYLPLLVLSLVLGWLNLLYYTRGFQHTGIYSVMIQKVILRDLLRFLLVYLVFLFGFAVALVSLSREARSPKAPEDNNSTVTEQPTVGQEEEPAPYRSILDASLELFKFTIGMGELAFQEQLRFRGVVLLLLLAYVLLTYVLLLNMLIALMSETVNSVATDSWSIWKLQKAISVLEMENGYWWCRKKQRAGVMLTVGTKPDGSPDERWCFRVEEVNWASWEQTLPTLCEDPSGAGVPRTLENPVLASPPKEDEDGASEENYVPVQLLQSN", "T1 sequence (Q9WUD2 with tags, fused parts or gaps P38Q/R41G/N45K/S46F/S47A/K51R/DEL56-59/P60Y/P61R/N63G/S65G/DEL67-67/Q70P/E71D/D73N/S82N/V83A/E91D/T93A/L96P/R100S/W101K/N102T/A110E/Q129K/M137L/K144R/K150Q/L151P/E160D/F161Y/Q163R/D189N/L192A/H202G/T227S/E240Q/L245Q/A257S/P261A/S264I/I268T/H269S/M277A/E289D/S291R/H293L/G295D/DEL322-322/Y323L/Q324S/P325H/S346A/W351C/K353E/N368H/E384A/R388L/V390I/S391P/R392K)": "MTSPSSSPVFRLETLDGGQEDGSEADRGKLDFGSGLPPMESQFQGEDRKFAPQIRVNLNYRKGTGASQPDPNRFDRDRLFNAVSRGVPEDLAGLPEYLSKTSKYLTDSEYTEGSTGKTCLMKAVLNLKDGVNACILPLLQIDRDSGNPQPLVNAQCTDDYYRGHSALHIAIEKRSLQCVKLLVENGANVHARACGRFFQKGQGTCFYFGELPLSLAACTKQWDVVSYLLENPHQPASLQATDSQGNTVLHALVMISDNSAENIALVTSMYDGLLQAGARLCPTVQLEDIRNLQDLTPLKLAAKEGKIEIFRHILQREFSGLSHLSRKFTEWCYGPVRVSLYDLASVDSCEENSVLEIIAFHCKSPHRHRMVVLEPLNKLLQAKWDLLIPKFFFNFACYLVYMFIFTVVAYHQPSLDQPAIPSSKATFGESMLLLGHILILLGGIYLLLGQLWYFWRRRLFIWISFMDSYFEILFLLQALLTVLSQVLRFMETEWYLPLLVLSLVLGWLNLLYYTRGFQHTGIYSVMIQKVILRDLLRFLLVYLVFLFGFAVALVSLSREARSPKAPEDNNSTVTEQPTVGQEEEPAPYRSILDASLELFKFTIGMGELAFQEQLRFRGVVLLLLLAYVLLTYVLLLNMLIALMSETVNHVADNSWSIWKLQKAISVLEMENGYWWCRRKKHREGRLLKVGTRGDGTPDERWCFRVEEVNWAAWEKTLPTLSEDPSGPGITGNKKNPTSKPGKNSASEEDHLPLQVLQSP", "assay": "Calcium mobilization in HEK293 cells co-expressing TRPV2 chimeras RRH and HRR", "format": "cell-based, rat/human", "settings": "co-expression in HEK cells", "procedure": "The deletion mutant constructs were then transfected into HEK293 cells using Fugene 6 reagent (Roche) as per the manufacturer's instructions. At 24 hours post-transfection, the cells were harvested and replated in fresh DMEM medium supplemented with 10% fetal bovine serum, 100 units/ml penicillin, and 100 μg/ml streptomycin. The cells were distributed onto poly-D-Lysine coated 96-or 384-well plates at a density of approximately 40,000 and 10,000 cells per well, respectively. At approximately 48 hours post-transfection, the medium was removed from the assay plate and replaced with Calcium 3 Dye Buffer (Molecular Devices) using the protocol available from the manufacturer. Calcium mobilization was triggered using Δ^9-THC or 2-APB or elevated temperature buffer and measured using either FLIPR or FLEX STATION instruments.\nBased on the predicted topology and primary sequence features of TRPV2, TRPV2 are divided into 3 major domains: 1) the amino-terminal intracellular domain; 2) the transmembrane domain; and 3) the carboxyl-terminal intracellular domain. For a chimera, each domain can be of rat (R) or human (H) origin. Three rat and human TRPV2 chimera were constructed and tested herein. RRH (SEQ ID NO:15) was a chimera comprising rat 1-392 aa, rat 393-646 aa, and human 647-764 aa. RHR (SEQ ID NO:16) was a chimera comprising rat 1-392, human 391-646, and rat 647-761. […]"}}}
{"substance": "Delta-9-tetrahydrocannabinol [Δ^9-THC]", "values": [{"measurement": "elevation of intracellular Ca2+ in untransfected HEK293 cells", "setting": "[1]", "value": "no significant intracellular Ca^+ elevation"}, {"measurement": "response of cells co-expressing both chimeras to the compound", "setting": "[2]", "value": "fully responsive"}]}
